Read-outs that look alike come from different tables or passages of the source.
Assays:
[1] = Inhibition of spontaneous nystagmus produced by unilateral destruction of the labyrinth (anti-vertigo action); format: in vivo; settings: cats
Experimental: (1) It is well known that vertigo resulting from the disturbance of the peripheral labyrinth is accompanied by nystagmus. So, we acutely produced the spontaneous nystagmus by unilateral destruction of the labyrinth in cats and used it as an experimental model of vertigo. a pair of Ag--AgCl cup electrodes was placed laterally to both orbits and an indifferent electrode on the forehead. The nystagmus was recorded through an amplifier. The inhibitory effect of the compounds on the nystagmus was expressed by [formula] where A is the frequency of the nystagmus in ten seconds before administration of the compounds and B is the frequency of the nystagmus at the maximum inhibitory point after administration. The duration of the effect was also measured. Compounds dissolved in saline were injected into the femoral vein. Betahistine and diphenidol were used as standard drugs.
A: Doses of compounds injected intraveneously.
B: Effect of compounds on the nystagmus expressed as inhibitory
C: Duration of the effect of compounds

[2] = Acute toxicity (LD50) by intraperitoneal injection; settings: mouse, in vivo, ip; male mice, intraperitoneal injection (Table 3)
Experimental: LD50 values of the compounds by intraperitoneal injection in mice were determined.

[3] = Effect on the hexobarbital-induced sleeping time; settings: male mice, 50 mg/kg subcutaneously, 15 min prior to sodium hexobarbital i.p.
Experimental: (§1) Groups consisted of 10 male-mice were administered the compounds or saline subcutaneously 15 min. prior to an intraperitoneal injection of sodium hexobarbital. Sleeping time for each animal in a group was measured. The averaged value of sleeping time in each group was calculated. The action of the sleeping time was expressed by the percentage of the sleeping time in the compound-treated groups to that in the saline-treated group.
(§2) D: Sleeping time of the compound (50 mg/kg, subcutaneously)treated groups
(§3) expressd as percentage to that of the control group.

[4] = mouse, in vivo, 50 mg/kg
Experimental: as §1, §2, §3

[5] = Felis catus, iv, 6 mg/kg injected intravenously, read-out: Effect of compounds on the nystagmus expressed as inhibitory percentage

| SMILES | inhibition at 6 mg/kg [1, 5] [%] | inhibition at 12 mg/kg ([1]; Felis catus, iv, 12 mg/kg injected intravenously, read-out: Effect of compounds on the nystagmus expressed as inhibitory percentage) [%] | Duration of the effect of compounds (nystagmus) ([1]; 6 mg/kg injected intravenously) [min] | Duration of the effect of compounds (nystagmus) ([1]; 12 mg/kg injected intravenously) [min] | LD50 [2] [mg/kg] | Sleeping time of the compound treated groups expressed as percentage to that of the control group [3] [%] | Sleeping time of the compound treated groups expressed as percentage to that of the control group [4] [%] |
| --- | --- | --- | --- | --- | --- | --- | --- |
| c1cnc2c(c1)CN(CC1CC1)CC2 [Compound 22] | 85 | 98 | 19 | 35 | 176 | 114.4 |  |
| OC(CCCN1CCCCC1)(c1ccccc1)c1ccccc1 [diphenidol, reference compound] | 70 |  | 45 |  | 105 |  | 253.7 |
